PMC5218480 (PLoS ONE, 2017)

System: MV-4-11 cells
Experiment: Gene expression microarray analysis (Affymetrix PrimeView) and GSEA
Format: cell-based, human
Design: RFU PODN (11730768_x_at) / Fold change /veh PODN (11730768_x_at) / RFU LINC00158 (11744669_a_at) / Fold change /veh LINC00158 (11744669_a_at) / RFU DUSP10 (11751237_a_at) / Fold change /veh DUSP10 (11751237_a_at) / RFU ID3 (11757404_x_at) / Fold change /veh ID3 (11757404_x_at) / RFU PLEKHG5 (11737974_s_at) / Fold change /veh PLEKHG5 (11737974_s_at) / RFU LRRC4B (11730491_at) / Fold change /veh LRRC4B (11730491_at) / RFU GIMAP4 (11747438_a_at) / Fold change /veh GIMAP4 (11747438_a_at) / RFU KRT8 (11758183_x_at) / Fold change /veh KRT8 (11758183_x_at) / RFU CNN1 (11734310_a_at) / Fold change /veh CNN1 (11734310_a_at) / RFU VPS37D (11726825_at) / Fold change /veh VPS37D (11726825_at) / RFU C10orf10 (11716522_x_at) / Fold change /veh C10orf10 (11716522_x_at) / RFU KIR2DL2 /// KIR2DL4 /// KIR2DL5A /// KIR2DL5B /// KIR2DS1 /// KIR2DS2 /// KIR2DS3 /// KIR2DS4 /// KIR3DL3 /// KIR3DL3 /// KIR3DS1 (11738374_at) / Fold change /veh KIR2DL2 /// KIR2DL4 /// KIR2DL5A /// KIR2DL5B /// KIR2DS1 /// KIR2DS2 /// KIR2DS3 /// KIR2DS4 /// KIR3DL3 /// KIR3DL3 /// KIR3DS1 (11738374_at) / RFU C1QL1 (11718748_at) / Fold change /veh C1QL1 (11718748_at) / RFU TMPRSS4 (11747572_a_at) / Fold change /veh TMPRSS4 (11747572_a_at) / RFU HAMP (11756126_x_at) / Fold change /veh HAMP (11756126_x_at) / RFU RNFT2 (11725882_a_at) / Fold change /veh RNFT2 (11725882_a_at) / RFU NR4A2 (11747474_a_at) / Fold change /veh NR4A2 (11747474_a_at) / RFU ABCC12 (11746883_a_at) / Fold change /veh ABCC12 (11746883_a_at) / RFU TMEM136 (11760407_x_at) / Fold change /veh TMEM136 (11760407_x_at) / RFU CLDN22 /// WWC2 (11732394_at) / Fold change /veh CLDN22 /// WWC2 (11732394_at) / RFU HLA-DPB1 (11760878_x_at) / Fold change /veh HLA-DPB1 (11760878_x_at) / RFU SPINT1 (11716480_a_at) / Fold change /veh SPINT1 (11716480_a_at) / RFU GAP43 (11754022_s_at) / Fold change /veh GAP43 (11754022_s_at) / RFU A4GNT (11735810_at) / Fold change /veh A4GNT (11735810_at) / RFU PRB3 (11715151_x_at) / Fold change /veh PRB3 (11715151_x_at) / RFU TUBB4B (11761932_at) / Fold change /veh TUBB4B (11761932_at) / RFU CAPN14 (11732068_a_at) / Fold change /veh CAPN14 (11732068_a_at) / RFU TMCC2 (11721928_a_at) / Fold change /veh TMCC2 (11721928_a_at) / RFU IRGQ (11745062_a_at) / Fold change /veh IRGQ (11745062_a_at) / RFU FAM174B (11720279_a_at) / Fold change /veh FAM174B (11720279_a_at) / RFU TMPRSS4 (11748680_a_at) / Fold change /veh TMPRSS4 (11748680_a_at) / RFU FAM212B (11763350_a_at) / Fold change /veh FAM212B (11763350_a_at) / RFU PLEKHG5 (11743358_a_at) / Fold change /veh PLEKHG5 (11743358_a_at) / RFU ZSCAN30 (11745921_a_at) / Fold change /veh ZSCAN30 (11745921_a_at) / RFU CMKLR1 (11741424_a_at) / Fold change /veh CMKLR1 (11741424_a_at) / RFU LOC101060620 /// MAPK8IP1 (11723275_at) / Fold change /veh LOC101060620 /// MAPK8IP1 (11723275_at) / RFU SPTSSB (11747773_x_at) / Fold change /veh SPTSSB (11747773_x_at) / RFU PRSS12 (11739890_at) / Fold change /veh PRSS12 (11739890_at) / RFU BIN1 (11741810_x_at) / Fold change /veh BIN1 (11741810_x_at) / RFU WNT11 (11732464_a_at) / Fold change /veh WNT11 (11732464_a_at) / RFU C10orf10 (11716521_a_at) / Fold change /veh C10orf10 (11716521_a_at) / RFU C5orf56 (11738089_at) / Fold change /veh C5orf56 (11738089_at) / RFU CYB561 (11721691_x_at) / Fold change /veh CYB561 (11721691_x_at) / RFU ANKRD19P (11752326_a_at) / Fold change /veh ANKRD19P (11752326_a_at) / RFU OR2T12 /// OR2T33 /// OR2T8 (11738714_s_at) / Fold change /veh OR2T12 /// OR2T33 /// OR2T8 (11738714_s_at) / RFU VCAN (11748164_a_at) / Fold change /veh VCAN (11748164_a_at) / RFU JSRP1 (11732532_at) / Fold change /veh JSRP1 (11732532_at) / RFU KRTAP10-11 (11738290_x_at) / Fold change /veh KRTAP10-11 (11738290_x_at) / RFU MYO3A (11730013_a_at) / Fold change /veh MYO3A (11730013_a_at) / RFU EBF3 (11725865_a_at) / Fold change /veh EBF3 (11725865_a_at) / RFU CAMK2N1 (11719241_x_at) / Fold change /veh CAMK2N1 (11719241_x_at) / RFU C5orf56 (11738088_a_at) / Fold change /veh C5orf56 (11738088_a_at) / RFU OLFML3 (11715873_a_at) / Fold change /veh OLFML3 (11715873_a_at) / RFU LOC100653217 /// NTM (11731650_a_at) / Fold change /veh LOC100653217 /// NTM (11731650_a_at) / RFU MAPK11 (11762145_a_at) / Fold change /veh MAPK11 (11762145_a_at) / RFU FIZ1 (11724087_x_at) / Fold change /veh FIZ1 (11724087_x_at) / RFU OASL (11726364_x_at) / Fold change /veh OASL (11726364_x_at) / RFU SOX15 (11748057_x_at) / Fold change /veh SOX15 (11748057_x_at) / RFU CD79A (11719716_a_at) / Fold change /veh CD79A (11719716_a_at) / RFU HIST1H1D (11736915_at) / Fold change /veh HIST1H1D (11736915_at) / RFU CASKIN2 (11723855_a_at) / Fold change /veh CASKIN2 (11723855_a_at) / RFU LOC730098 (11760151_x_at) / Fold change /veh LOC730098 (11760151_x_at) / RFU OR4N2 (11742367_at) / Fold change /veh OR4N2 (11742367_at) / RFU PRRT2 (11749266_a_at) / Fold change /veh PRRT2 (11749266_a_at) / RFU SNX32 (11753110_a_at) / Fold change /veh SNX32 (11753110_a_at) / RFU CDHR5 (11726645_a_at) / Fold change /veh CDHR5 (11726645_a_at) / RFU RCAN1 (11760418_a_at) / Fold change /veh RCAN1 (11760418_a_at) / RFU FAM167A (11723789_a_at) / Fold change /veh FAM167A (11723789_a_at) / RFU FAM26E (11764081_at) / Fold change /veh FAM26E (11764081_at) / RFU ISYNA1 (11749810_s_at) / Fold change /veh ISYNA1 (11749810_s_at) / RFU ACY1 (11761880_at) / Fold change /veh ACY1 (11761880_at) / RFU 11764098_at / Fold change /veh 11764098_at / RFU SAMD14 (11745864_x_at) / Fold change /veh SAMD14 (11745864_x_at) / RFU NPB (11741838_a_at) / Fold change /veh NPB (11741838_a_at) / RFU TMPRSS6 (11731388_a_at) / Fold change /veh TMPRSS6 (11731388_a_at) / RFU KRTAP10-2 (11738614_at) / Fold change /veh KRTAP10-2 (11738614_at) / RFU ARHGAP8 /// PRR5-ARHGAP8 (11727945_x_at) / Fold change /veh ARHGAP8 /// PRR5-ARHGAP8 (11727945_x_at) / RFU KRTAP5-7 /// NADSYN1 (11734609_at) / Fold change /veh KRTAP5-7 /// NADSYN1 (11734609_at) / RFU RASL12 (11751679_a_at) / Fold change /veh RASL12 (11751679_a_at) / RFU CDKN2B (11736163_a_at) / Fold change /veh CDKN2B (11736163_a_at) / RFU PRF1 (11729649_at) / Fold change /veh PRF1 (11729649_at) / RFU, ZNF638 /// ZNF638-IT1 / Fold change vs veh, ZNF638 /// ZNF638-IT1 / RFU, PANK3 / Fold change vs veh, PANK3 / RFU, SH3YL1 / Fold change vs veh, SH3YL1 / RFU, ZEB2 / Fold change vs veh, ZEB2 / RFU, NRIP1 / Fold change vs veh, NRIP1 / RFU, PTTG1IP / Fold change vs veh, PTTG1IP / RFU, CAPN2 / Fold change vs veh, CAPN2 / RFU, MED14 / Fold change vs veh, MED14 / RFU, SNORA58 / Fold change vs veh, SNORA58 / RFU, C1orf63 / Fold change vs veh, C1orf63 / RFU, LRRFIP1 / Fold change vs veh, LRRFIP1 / RFU, NDUFAF7 / Fold change vs veh, NDUFAF7 / RFU, SLC12A2 / Fold change vs veh, SLC12A2 / RFU, IBTK / Fold change vs veh, IBTK / RFU, ESF1 / Fold change vs veh, ESF1 / Fold change vs veh, TMEM50B / RFU, TAOK1 / Fold change vs veh, TAOK1 / RFU, ACBD3 / Fold change vs veh, ACBD3 / RFU, TMA16 / Fold change vs veh, TMA16 / RFU, RWDD3 / Fold change vs veh, RWDD3 / RFU, BCAT1 / Fold change vs veh, BCAT1 / RFU, EDEM3 / Fold change vs veh, EDEM3 / RFU, TMEM33 / Fold change vs veh, TMEM33 / RFU, WDR75 / Fold change vs veh, WDR75 / RFU, AHCTF1 / Fold change vs veh, AHCTF1 / RFU, TFRC / Fold change vs veh, TFRC / RFU, ZDHHC17 / Fold change vs veh, ZDHHC17 / RFU, NOM1 / Fold change vs veh, NOM1 / RFU, ARL8B / Fold change vs veh, ARL8B / RFU, ZBTB11 / Fold change vs veh, ZBTB11 / RFU, TAMM41 / Fold change vs veh, TAMM41 / RFU, KIAA1704 /// LOC100996395 / Fold change vs veh, KIAA1704 /// LOC100996395 / RFU, ING1 / Fold change vs veh, ING1 / RFU, TRMT61B / Fold change vs veh, TRMT61B / RFU, FUBP3 / Fold change vs veh, FUBP3 / RFU, TP53 / Fold change vs veh, TP53 / RFU, TNKS2 / Fold change vs veh, TNKS2 / RFU, ZFP14 / Fold change vs veh, ZFP14 / RFU, ACTR2 / Fold change vs veh, ACTR2 / RFU, PPP3R1 / Fold change vs veh, PPP3R1 / RFU, PIK3R1 / Fold change vs veh, PIK3R1 / RFU, HNRNPA1 / Fold change vs veh, HNRNPA1 / RFU, RNF170 / Fold change vs veh, RNF170 / RFU, ZNF28 / Fold change vs veh, ZNF28 / RFU, RNGTT / Fold change vs veh, RNGTT / RFU, OGT / Fold change vs veh, OGT / RFU, BRD1 / Fold change vs veh, BRD1 / RFU, MARS / Fold change vs veh, MARS / RFU, ZNF655 / Fold change vs veh, ZNF655 / RFU, FAHD1 / Fold change vs veh, FAHD1 / RFU, BDP1 / Fold change vs veh, BDP1 / RFU, LRRCC1 / Fold change vs veh, LRRCC1 / RFU, ARID1A / Fold change vs veh, ARID1A / RFU, ZNF146 / Fold change vs veh, ZNF146 / RFU, ZNF330 / Fold change vs veh, ZNF330 / RFU, GPN3 / Fold change vs veh, GPN3 / RFU, C9orf123 / Fold change vs veh, C9orf123 / RFU, N4BP2L2 / Fold change vs veh, N4BP2L2 / RFU, ARFIP1 / Fold change vs veh, ARFIP1 / RFU, FAM179B / Fold change vs veh, FAM179B / RFU, BCL10 / Fold change vs veh, BCL10 / RFU, UHRF1BP1L / Fold change vs veh, UHRF1BP1L / RFU, BET1 / Fold change vs veh, BET1 / RFU, CNOT2 / Fold change vs veh, CNOT2 / RFU, ZNF268 / Fold change vs veh, ZNF268 / Fold change vs veh, ZNF507 / RFU, DGCR2 / Fold change vs veh, DGCR2 / RFU, WDSUB1 / Fold change vs veh, WDSUB1 / Fold change vs veh, HSP90B1 /// MIR3652 / RFU, ADSS / Fold change vs veh, ADSS / RFU, GK / Fold change vs veh, GK / RFU, ZNF148 / Fold change vs veh, ZNF148 / RFU, TAF9 / Fold change vs veh, TAF9 / RFU, SLC1A5 / Fold change vs veh, SLC1A5 / RFU, SLMO2 / Fold change vs veh, SLMO2 / RFU, ABCC4 / Fold change vs veh, ABCC4 / RFU, LOC101060439 /// RAP1B / Fold change vs veh, LOC101060439 /// RAP1B / RFU, RFX7 / Fold change vs veh, RFX7 / RFU, GTPBP10 / Fold change vs veh, GTPBP10 / RFU, CNEP1R1 / Fold change vs veh, CNEP1R1 / RFU, BIVM-ERCC5 /// ERCC5 / Fold change vs veh, BIVM-ERCC5 /// ERCC5 / RFU, ILF3 / Fold change vs veh, ILF3 / RFU 11762660_at / Fold change /veh 11762660_at / RFU VCAN (11757783_s_at) / Fold change /veh VCAN (11757783_s_at) / RFU DDX43 (11728927_at) / Fold change /veh DDX43 (11728927_at) / RFU KRT8 (11758188_x_at) / Fold change /veh KRT8 (11758188_x_at) / RFU NKD1 (11759106_at) / Fold change /veh NKD1 (11759106_at) / RFU SRD5A1 (11742802_a_at) / Fold change /veh SRD5A1 (11742802_a_at) / RFU TPSAB1 /// TPSB2 (11721975_s_at) / Fold change /veh TPSAB1 /// TPSB2 (11721975_s_at) / RFU GSTM3 (11746129_a_at) / Fold change /veh GSTM3 (11746129_a_at) / RFU IL23R (11737362_x_at) / Fold change /veh IL23R (11737362_x_at) / RFU TMEM51 (11727254_a_at) / Fold change /veh TMEM51 (11727254_a_at) / RFU PIWIL2 (11732686_x_at) / Fold change /veh PIWIL2 (11732686_x_at) / RFU ORM1 (11744905_x_at) / Fold change /veh ORM1 (11744905_x_at) / RFU CCDC152 (11743942_at) / Fold change /veh CCDC152 (11743942_at) / RFU ECM1 (11717891_a_at) / Fold change /veh ECM1 (11717891_a_at) / RFU IL23R (11748794_a_at) / Fold change /veh IL23R (11748794_a_at) / RFU TNFAIP8L3 (11732012_x_at) / Fold change /veh TNFAIP8L3 (11732012_x_at) / RFU MBOAT4 (11741988_at) / Fold change /veh MBOAT4 (11741988_at) / RFU 11764193_at / Fold change /veh 11764193_at / RFU TMEM53 (11763286_at) / Fold change /veh TMEM53 (11763286_at) / RFU MAGEB2 (11727129_at) / Fold change /veh MAGEB2 (11727129_at) / RFU TMEM200A (11744735_a_at) / Fold change /veh TMEM200A (11744735_a_at) / RFU CCDC152 (11751479_a_at) / Fold change /veh CCDC152 (11751479_a_at) / RFU FAM211A (11726209_a_at) / Fold change /veh FAM211A (11726209_a_at) / RFU RGS16 (11746705_a_at) / Fold change /veh RGS16 (11746705_a_at) / RFU VCAN (11755009_s_at) / Fold change /veh VCAN (11755009_s_at) / RFU RHOB (11743442_s_at) / Fold change /veh RHOB (11743442_s_at) / RFU RGS16 (11720943_a_at) / Fold change /veh RGS16 (11720943_a_at) / RFU RGS16 (11720944_at) / Fold change /veh RGS16 (11720944_at) / RFU, VPS4B / Fold change vs veh, VPS4B / RFU, CREB1 / Fold change vs veh, CREB1 / RFU, DNAJC13 / Fold change vs veh, DNAJC13 / RFU, GNAQ / Fold change vs veh, GNAQ / RFU, CDK5R1 / Fold change vs veh, CDK5R1 / RFU, ZRANB3 / Fold change vs veh, ZRANB3 / RFU, CUL4A / Fold change vs veh, CUL4A / RFU, CCNY / Fold change vs veh, CCNY / RFU, UFL1 / Fold change vs veh, UFL1 / RFU, COG3 / Fold change vs veh, COG3 / RFU, DIAPH2 / Fold change vs veh, DIAPH2 / RFU, SKA2 / Fold change vs veh, SKA2 / RFU, AFF3 / Fold change vs veh, AFF3 / RFU, LMF1 / Fold change vs veh, LMF1 / RFU, IPO11 / Fold change vs veh, IPO11 / RFU, DFFB / Fold change vs veh, DFFB / RFU, FOXP1 / Fold change vs veh, FOXP1 / RFU, CARD8 / Fold change vs veh, CARD8 / RFU, STRN3 / Fold change vs veh, STRN3 / RFU, ADK / Fold change vs veh, ADK / RFU, RASSF2 / Fold change vs veh, RASSF2 / RFU, WIPF1 / Fold change vs veh, WIPF1 / RFU, LARP1B / Fold change vs veh, LARP1B / RFU, RASA1 / Fold change vs veh, RASA1 / RFU, RB1 / Fold change vs veh, RB1 / RFU, PPFIA1 / Fold change vs veh, PPFIA1 / RFU, MAT2A / Fold change vs veh, MAT2A / RFU, CCT5 / Fold change vs veh, CCT5 / RFU, WDR92 / Fold change vs veh, WDR92 / RFU, CUX1 / Fold change vs veh, CUX1 / RFU, TTC7A / Fold change vs veh, TTC7A / RFU, TMEM135 / Fold change vs veh, TMEM135 / RFU, DEPTOR / Fold change vs veh, DEPTOR / RFU, CPM / Fold change vs veh, CPM / RFU, DNAJB6 / Fold change vs veh, DNAJB6 / RFU, CACNA2D3 / Fold change vs veh, CACNA2D3 / RFU, DTX4 / Fold change vs veh, DTX4 / RFU, TFCP2 / Fold change vs veh, TFCP2 / RFU, GMCL1 /// GMCL1P1 / Fold change vs veh, GMCL1 /// GMCL1P1 / RFU, AEBP2 / Fold change vs veh, AEBP2 / RFU, SNHG1 /// SNORD22 /// SNORD25 /// SNORD26 /// SNORD27 /// SNORD28 /// SNORD29 /// SNORD31 / Fold change vs veh, SNHG1 /// SNORD22 /// SNORD25 /// SNORD26 /// SNORD27 /// SNORD28 /// SNORD29 /// SNORD31 / Fold change (Aza/veh), C12orf56 (ProbeSet 11735607_a_at) / Fold change (ACY-1035/veh), C12orf56 (ProbeSet 11735607_a_at) / Fold change (Aza/veh), FGFR1OP (ProbeSet 11751329_s_at) / Fold change (ACY-1035/veh), FGFR1OP (ProbeSet 11751329_s_at) / Fold change (Aza/veh), VPS36 (ProbeSet 11739960_a_at) / Fold change (ACY-1035/veh), VPS36 (ProbeSet 11739960_a_at) / RFU SYPL1 (11715823_x_at) / Fold change /veh SYPL1 (11715823_x_at) / RFU IGFBP7 (11715501_s_at) / Fold change /veh IGFBP7 (11715501_s_at) / RFU REEP3 (11722064_at) / Fold change /veh REEP3 (11722064_at) / RFU IGLL1 (11728026_x_at) / Fold change /veh IGLL1 (11728026_x_at): dose or concentration left out as unconfirmed
Details: ProbeSet 11741199_a_at; LIST B

Nc1ccc(-c2cccs2)cc1NC(=O)c1ccc2c(c1)cc(C1CC1)n2CCN1CCOCC1 [ACY-1035]
RFU, LRRCC1: 56.24 RFU
